From patent publication US20250282819A1, “MITOCHONDRIA-[…] PEPTIDE THAT CAN BE […] DELIVERED AT NANOMOLAR CONCENTRATION, AND USE THEREOF” (CAMP THERAPEUTICS INC., priority 2021, published 2025)
Where a SMILES comes first, the peptide text is derived from it.

Tests used:
[1] = Oligomerization tendency by HPLC retention time at 40 and 5° C.; type: physicochemical; conditions: 10 μl of 0.2 mM peptide
Method: Specifically, 10 μl of each peptide solution at 0.2 mM was injected into HPLC, and the time at which the peptide was detected (RT) was measured at 40° C. and 5° C., respectively. Here, the stationary phase and mobile phase conditions of the HPLC were set using well-known methods. In general, the better the oligomer is formed, the detection time becomes longer at 40° C., which is a relatively higher temperature, thereby resulting in larger ΔΔRT that is a difference from the value measured at 5° C.

HeLa cells [2] = type: cell-based
Method: Cell-penetrating ability was evaluated using the fluorescently-labeled versions of the dimeric bundle peptides synthesized in Example 3, and measured as EC50 values according to the method described in Experimental Example 3.
1×10^5 HeLa cells were seeded into a 24-well plate. After 24 hours, the peptide was added to the cells and further incubation was performed for 3 hours. The incubated cells were harvested, washed with PBS, suspended in PBS, and then analyzed by fluorescence-activated cell sorting (FACS; BD Accuri, USA). The cells whose fluorescence intensity exceeds the maximum intensity of untreated cells were classified as fluorescence-positive cells.

[3] = Cytotoxicity by WST-1 assay; type: cell-based; conditions: human, HeLa cells, one day, read-out: concentration at which 50% of the cultured cells were killed
Method: The cytotoxicity was measured by WST-1 assay. Specifically, 1×10^4 HeLa cells were seeded into 96-well plates. After 24 hours, the cells were treated with different concentrations of CMP3013 peptide indicated in FIG. 12 and incubated for one day. At the end of the incubation, the culture medium was replaced with new culture medium, treatment with EZ-Cytox (DoGEN, South Korea) at 10 μL was performed per well, and incubation was performed for 30 minutes. Then, the absorbance was measured at 450 nm. As a result, it was identified that the cytotoxicity of CMP3013 was only observed at micromolar or higher levels, and the concentration, at which 50% of the cultured cells were killed, reached 10 micromolar (FIG. 12).

HeLa cells [4] = experiment: ATP levels in damaged cells pretreated with peptide; type: cell-based; conditions: HeLa cells, 10 or 30 nM; 1 μM antimycin A or 1 mM H2O2
Method: The relative ATP levels of cells were compared by fluorescence intensity according to the method described in Experimental Example 8, and mitochondrial damage was induced by treatment with two different mitochondrial damaging agents (1 μM of antimycin A or 1 mM of H2O2).
Cellular ATP levels were assessed using an ATP detection kit (Abcam, ab113849, USA) according to the manufacturer's instructions. Fluorescence luminescence was measured with a microplate reader (Promega, Glomax 96 microplate luminometer, USA).

HeLa cells [5] = experiment: Mitochondria-targeting ability by mitochondrial fractionation; type: cell-based; conditions: EC50 concentration
Method: To determine at what rate the dimeric bundle peptides according to the present disclosure target mitochondria, mitochondrial fractionation was performed according to the method described in Experimental Example 4. […] Then, the cells were harvested and fractionation was performed.
Cell-penetrating ability was performed according to the method described in Experimental Example 3, and mitochondria-targeting ability was assessed by mitochondrial fractionation according to the method described in Experimental Example 4. In addition to SS-31 as a conventional peptide, a mitochondrial-penetrating peptide of Kelly's group (MPP1a; see Horton, Kristin L et al. “Mitochondria-penetrating peptides.” Chemistry & biology vol. 15, 4 (2008): 375-82) was used as an additional comparison group. The amino acid sequence of MPP1a is as follows: X(dR)XKX(dR)XK (where X is cyclohexylalanine, dR is D-arginine, and K is lysine).
Intracellular distribution of peptides was detected using the mitochondria isolation method. […] The cells were harvested, washed with cold PBS, and suspended in cold IB (30 mM Tris-HCl, pH 7.4; 225 mM mannitol; 75 mM sucrose; and 0.1 mM EGTA). […] Lysed cells were monitored under a light microscope. […] The fluorescence intensity of each fraction was measured by using a microplate reader [TECAN, Switzerland; excitation (Ex)/emission (Em)=510/570 nm].

[6] = Membrane potential restoring ability, JC-1, comparison of SS-31 and CMP3013; type: cell-based; conditions: 1 mM H2O2; 10 or 30 nM
Method: For comparison of efficacy of the two peptides on restoration of mitochondrial function, SS-31 and CMP3013 were tested for their effect on membrane potential. The change in mitochondrial membrane potential was measured as a fluorescence ratio of JC-1 according to the method described in Experimental Example 8, and 1 mM of H2O2 was used as a mitochondrial damaging agent.

SH-SY5Y cells = experiment: ROS production inhibiting ability, comparison of SS-31 and CMP3013; type: cell-based; conditions: CCCP, rotenone, antimycin A or H2O2, SS-31 100 nM or 1 μM, CMP3013 10 nM or 100 nM
Method: To compare effects of the two peptides on restoration of mitochondrial function, SS-31 and CMP3013 were tested for their ROS production inhibiting ability. The relative ROS levels in cells were compared by fluorescence intensity according to the method described in Experimental Example 6. SH-SY5Y cells were treated with four different mitochondrial damaging agents (200 μM CCCP, 50 μM rotenone, 10 μM antimycin A, or 50 μM H2O2) to induce production of ROS by mitochondrial damage.
The second method was performed as follows. First, 2×10^4 HeLa cells were seeded into a 96-well plate. After 24 hours, the cells were incubated with each peptide for 3 hours, and then staining with H2DCFDA (25 μM, 30 min) was performed. After performing washing twice with PBS, the cells in HBSS were used for analysis of ROS levels. The DCF signal of each well was obtained using a microplate reader (TECAN) at 37° C. (Ex/Em=485/535 nm).

CC(=O)N[C@@H](CC1CCCCC1)C(=O)N[C@H]1CSSC[C@@H](C(=O)N[C@@H](CCCNC(=N)N)C(N)=O)NC(=O)[C@H](CC2CCCCC2)NC(=O)[C@H](CCCNC(=N)N)NC(=O)[C@H](CCCNC(=N)N)NC(=O)[C@H](CC2CCCCC2)NC(=O)[C@H](CC(C)C)NC(=O)[C@H](CCCNC(=N)N)NC(=O)[C@@H](NC(=O)[C@H](CC2CCCCC2)NC(C)=O)CSSC[C@@H](C(=O)N[C@@H](CCCNC(=N)N)C(N)=O)NC(=O)[C@H](CC2CCCCC2)NC(=O)[C@H](CCCNC(=N)N)NC(=O)[C@H](CCCNC(=N)N)NC(=O)[C@H](CC2CCCCC2)NC(=O)[C@H](CC(C)C)NC(=O)[C@H](CCCNC(=N)N)NC1=O [CMP3013] (HELM PEPTIDE1{[ac].[Cha].C.R.L.[Cha].R.R.[Cha].C.R.[am]}|PEPTIDE2{[ac].[Cha].C.R.L.[Cha].R.R.[Cha].C.R.[am]}$PEPTIDE1,PEPTIDE2,3:R3-10:R3|PEPTIDE1,PEPTIDE2,10:R3-3:R3$$$V2.0)
Oligomerization tendency (RT at 40-5° C.) ΔΔRT [1]: 2.683 min
improvement in cell penetration rate as compared with SS-31 (HeLa cells [2]): approximately 100 fold
level of EC50 value (cell-penetrating ability) (HeLa cells [2]; comparison of CMP3013, LR10, MPP1a, SS-31): lowest EC50 value
CC50 at 24 h [3]: 10 µM
ATP production promoting ability (HeLa cells [4]): promoting resumption of ATP production
mitochondrial/cytoplasmic abundance ratio (M/C ratio) (HeLa cells [5]): 4.1
rank of percentage in the mitochondrial fraction (HeLa cells [5]; 3 hours): highest percentage in the mitochondrial fraction
mitochondrial membrane potential (Δψm), JC-1 ratio [6]: increased mitochondrial membrane potential
ROS production inhibiting ability (SH-SY5Y cells): equivalent or better ROS production inhibiting ability than SS-31
